Assay results published in patent US7745139B1, “Peptides of the AT1 receptor and their uses” (Max-Delbrück-Centrum für Molekulare Medizin, priority 1998, dated 2010).
“Also recorded” adds a separate entry of the source.

Columns and labels:
[1] = target: T1, AT1 receptor (Rattus norvegicus, UniProt P25095); assay: Bioassay: beat frequency of spontaneously pulsing cultivated neo-natal rat heart cells (cardiomyocytes); type: cell-based; conditions: for Influence on the positively chronotropic effect of angiotensin II: cells stimulated with angiotensin II; for Influence of receptor blockers on the positively chronotropic effect of the auto-antibodies: cells stimulated with anti-AT1 receptor auto-antibody
T1 construct: endogenous in cells; host or cells: primary culture of spontaneously pulsing neonatal rat cardiomyocytes
T1 sequence (P25095 1-359): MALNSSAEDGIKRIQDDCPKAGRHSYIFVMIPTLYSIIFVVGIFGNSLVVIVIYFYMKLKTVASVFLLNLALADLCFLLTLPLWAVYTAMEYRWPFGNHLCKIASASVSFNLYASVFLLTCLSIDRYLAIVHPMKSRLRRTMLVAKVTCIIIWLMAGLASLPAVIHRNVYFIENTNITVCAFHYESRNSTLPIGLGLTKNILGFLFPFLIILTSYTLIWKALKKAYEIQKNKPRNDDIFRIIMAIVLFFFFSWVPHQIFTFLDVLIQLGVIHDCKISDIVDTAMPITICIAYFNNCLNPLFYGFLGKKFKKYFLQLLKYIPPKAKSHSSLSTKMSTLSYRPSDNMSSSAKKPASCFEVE
Text: The bio-assay entails • spontaneously pulsing neo-natal cardiomyocytes in primary culture or • cardiomyocytes differentiated from undifferentiated embryonal stem cells • in one culture medium
(§1) Cultivated neo-natal rat heart cells were used as a bioassay.
To identify and characterise the AT1 receptor antibodies, a sensitive bioassay was used. […] In order to identify the epitopes of the auto-antibodies on the second extra-cellular loops of the angiotensin II AT1 receptor, an attempt was made to neutralise the anti-AT1 receptor auto-antibodies with short overlapping peptides. […] I.

[2] = system: anti-AT1 receptor auto-antibodies; assay: Neutralisation of patients' antibodies by pre-treatment with AT1 receptor peptides, read out in the cardiomyocyte bioassay; type: cell-based, human; conditions: for Patients' antibodies, pre-treated with peptide (beat frequency bioassay): antibody 1:40 + peptide; for Annulment of the effect of the antibody by epitope peptides: antibodies of hypertension sufferers; for Neutralisation/inhibition of the agonistic effect of the auto-antibodies on the cells: antibodies of preeclampsia patients
Text: as §1
To identify and characterise the AT1 receptor antibodies, a sensitive bioassay was used. […] Further, this agonistic effect was neutralised by a peptide corresponding to the second extra-cellular loop of the AT1 receptor. In order to identify the epitopes of the auto-antibodies on the second extra-cellular loops of the angiotensin II AT1 receptor, an attempt was made to neutralise the anti-AT1 receptor auto-antibodies with short overlapping peptides. […] These were the epitopes ENTNIT and AFHYESQ. In preeclampsia patients, the agonistic effect of the antibodies achieved via the AT1 receptor was only neutralised by the peptide AFHYESQ. This epitope has a special importance in this disease, as it was identified in all the patients examined. […] I.

| Molecule | Patients' antibodies, pre-treated with peptide (beat frequency bioassay) ([2]; Patient No. 1) | Patients' antibodies, pre-treated with peptide (beat frequency bioassay) ([2]; Patient No. 2) | Neutralisation/inhibition of the agonistic effect of the auto-antibodies on the cells [2] | also measured |
| --- | --- | --- | --- | --- |
| CCCCc1nc(Cl)c(CO)n1Cc1ccc(-c2ccccc2-c2nn[nH]n2)cc1 [Losartan] |  |  |  | Influence on the positively chronotropic effect of angiotensin II [1]: blocked; Influence on the positively chronotropic effect of angiotensin II ([1]; listed as Losastan): inhibited; Influence of receptor blockers on the positively chronotropic effect of the auto-antibodies [1]: stopped; Influence of receptor blockers on the positively chronotropic effect of the auto-antibodies ([1]; listed as Losastan): inhibited |
| Cc1cc(Cn2cnc3c2C[C@@H](C(=O)O)N(C(=O)C(c2ccccc2)c2ccccc2)C3)ccc1N(C)C [PD 123319] |  |  |  | Influence of receptor blockers on the positively chronotropic effect of the auto-antibodies [1]: no influence |
| AFHYESQ | 1.2 ± 0.84 | 1.6 ± 1.24 | inhibits the effect; also recorded: neutralised | Annulment of the effect of the antibody by epitope peptides [2]: annul the effect of the antibody |
| ENTNIT |  |  |  | Annulment of the effect of the antibody by epitope peptides [2]: annul the effect of the antibody |
| GYYFDTN [function-analog peptide] | 2.4 ± 0.72 | 2.8 ± 1.20 | neutralise the antibodies |  |
| SHFYQTR [function-analog peptide] | 0.8 ± 1.16 | 0.8 ± 0.80 | neutralise the antibodies |  |
| angiotensin II [angiotensin-II] |  |  |  | Chronotropic effect on cardiomyocytes (beat frequency / pulsation rate) ([1]; agonist alone): increase of the beat frequency |
| loop II peptides: peptides portraying the part of the AT1 receptor corresponding to loop II (IHRNVFFIENTNITVCAFHYESQNSTL) |  |  | inhibit the antibody effect | Neutralisation/inhibition of the agonistic effect of the auto-antibodies on the cells ([2]; listed as peptide corresponding to the second extra-cellular loop of the AT1 receptor): neutralised |
